Reference: the CheMixHub viscosity set
± gives the uncertainty stated by the source.

Assay: xn = mol fraction of the nth substance listed

CCCCNCCCC + CC(C)(C)O
viscosity (298.15 K, 101.33 kPa, x1 = 0.0672): 3.548 mPa·s | viscosity (298.15 K, 101.33 kPa, x1 = 0.0989): 3.272 mPa·s | viscosity (298.15 K, 101.33 kPa, x1 = 0.1393): 2.953 mPa·s | viscosity (298.15 K, 101.33 kPa, x1 = 0.1939): 2.586 mPa·s | viscosity (298.15 K, 101.33 kPa, x1 = 0.2674): 2.165 mPa·s | viscosity (298.15 K, 101.33 kPa, x1 = 0.3319): 1.893 mPa·s | viscosity (298.15 K, 101.33 kPa, x1 = 0.405): 1.643 mPa·s | viscosity (298.15 K, 101.33 kPa, x1 = 0.4915): 1.419 mPa·s | viscosity (298.15 K, 101.33 kPa, x1 = 0.5791): 1.248 mPa·s | viscosity (298.15 K, 101.33 kPa, x1 = 0.6466): 1.143 mPa·s | viscosity (298.15 K, 101.33 kPa, x1 = 0.6907): 1.086 mPa·s | viscosity (298.15 K, 101.33 kPa, x1 = 0.776): 0.994 mPa·s | viscosity (298.15 K, 101.33 kPa, x1 = 0.8387): 0.932 mPa·s | viscosity (298.15 K, 101.33 kPa, x1 = 0.8867): 0.889 mPa·s | viscosity (298.15 K, 101.33 kPa, x1 = 0.9129): 0.872 mPa·s | viscosity (298.15 K, 101.33 kPa, x1 = 0.9471): 0.845 mPa·s | viscosity (303.15 K, 101 kPa, x2 = 0.1): 0.8289 ± 0.01 mPa·s | viscosity (303.15 K, 101 kPa, x2 = 0.2): 0.8953 ± 0.011 mPa·s | viscosity (303.15 K, 101 kPa, x2 = 0.3): 0.976 ± 0.012 mPa·s | viscosity (303.15 K, 101 kPa, x2 = 0.4): 1.082 ± 0.013 mPa·s | viscosity (303.15 K, 101 kPa, x2 = 0.4999): 1.217 ± 0.015 mPa·s | viscosity (303.15 K, 101 kPa, x2 = 0.55): 1.302 ± 0.016 mPa·s | viscosity (303.15 K, 101 kPa, x2 = 0.6001): 1.391 ± 0.017 mPa·s | viscosity (303.15 K, 101 kPa, x2 = 0.65): 1.513 ± 0.018 mPa·s | viscosity (303.15 K, 101 kPa, x2 = 0.7): 1.647 ± 0.02 mPa·s | viscosity (303.15 K, 101 kPa, x2 = 0.8001): 2.011 ± 0.025 mPa·s | viscosity (303.15 K, 101 kPa, x2 = 0.9): 2.559 ± 0.031 mPa·s | viscosity (303.15 K, 101 kPa, x2 = 0.95): 2.937 ± 0.036 mPa·s | viscosity (308.15 K, 101 kPa, x2 = 0.1): 0.7649 ± 0.0097 mPa·s | viscosity (308.15 K, 101 kPa, x2 = 0.2): 0.8203 ± 0.01 mPa·s | viscosity (308.15 K, 101 kPa, x2 = 0.3): 0.8884 ± 0.011 mPa·s | viscosity (308.15 K, 101 kPa, x2 = 0.4): 0.9747 ± 0.012 mPa·s | viscosity (308.15 K, 101 kPa, x2 = 0.4999): 1.085 ± 0.013 mPa·s | viscosity (308.15 K, 101 kPa, x2 = 0.55): 1.153 ± 0.014 mPa·s | viscosity (308.15 K, 101 kPa, x2 = 0.6001): 1.228 ± 0.015 mPa·s | viscosity (308.15 K, 101 kPa, x2 = 0.65): 1.32 ± 0.016 mPa·s | viscosity (308.15 K, 101 kPa, x2 = 0.7): 1.423 ± 0.017 mPa·s | viscosity (308.15 K, 101 kPa, x2 = 0.8001): 1.696 ± 0.021 mPa·s | viscosity (308.15 K, 101 kPa, x2 = 0.9): 2.087 ± 0.026 mPa·s | viscosity (308.15 K, 101 kPa, x2 = 0.95): 2.352 ± 0.029 mPa·s | viscosity (308.15 K, 101.33 kPa, x1 = 0.0672): 2.271 mPa·s | viscosity (308.15 K, 101.33 kPa, x1 = 0.0989): 2.133 mPa·s | viscosity (308.15 K, 101.33 kPa, x1 = 0.1393): 1.97 mPa·s | viscosity (308.15 K, 101.33 kPa, x1 = 0.1939): 1.782 mPa·s | viscosity (308.15 K, 101.33 kPa, x1 = 0.2674): 1.559 mPa·s | viscosity (308.15 K, 101.33 kPa, x1 = 0.3319): 1.402 mPa·s | viscosity (308.15 K, 101.33 kPa, x1 = 0.405): 1.25 mPa·s | viscosity (308.15 K, 101.33 kPa, x1 = 0.4915): 1.109 mPa·s | viscosity (308.15 K, 101.33 kPa, x1 = 0.5791): 0.999 mPa·s | viscosity (308.15 K, 101.33 kPa, x1 = 0.6466): 0.93 mPa·s | viscosity (308.15 K, 101.33 kPa, x1 = 0.6907): 0.89 mPa·s | viscosity (308.15 K, 101.33 kPa, x1 = 0.776): 0.825 mPa·s | viscosity (308.15 K, 101.33 kPa, x1 = 0.8387): 0.783 mPa·s | viscosity (308.15 K, 101.33 kPa, x1 = 0.8867): 0.752 mPa·s | viscosity (308.15 K, 101.33 kPa, x1 = 0.9129): 0.742 mPa·s | viscosity (308.15 K, 101.33 kPa, x1 = 0.9471): 0.724 mPa·s | viscosity (313.15 K, 101 kPa, x2 = 0.1): 0.7079 ± 0.009 mPa·s | viscosity (313.15 K, 101 kPa, x2 = 0.2): 0.7551 ± 0.0095 mPa·s | viscosity (313.15 K, 101 kPa, x2 = 0.3): 0.8111 ± 0.01 mPa·s | viscosity (313.15 K, 101 kPa, x2 = 0.4): 0.8862 ± 0.011 mPa·s | viscosity (313.15 K, 101 kPa, x2 = 0.4999): 0.9769 ± 0.012 mPa·s | viscosity (313.15 K, 101 kPa, x2 = 0.55): 1.027 ± 0.013 mPa·s | viscosity (313.15 K, 101 kPa, x2 = 0.6001): 1.087 ± 0.013 mPa·s | viscosity (313.15 K, 101 kPa, x2 = 0.65): 1.16 ± 0.014 mPa·s | viscosity (313.15 K, 101 kPa, x2 = 0.7): 1.24 ± 0.015 mPa·s | viscosity (313.15 K, 101 kPa, x2 = 0.8001): 1.441 ± 0.018 mPa·s | viscosity (313.15 K, 101 kPa, x2 = 0.9): 1.71 ± 0.021 mPa·s | viscosity (313.15 K, 101 kPa, x2 = 0.95): 1.91 ± 0.023 mPa·s | viscosity (318.15 K, 101 kPa, x2 = 0.1): 0.658 ± 0.0083 mPa·s | viscosity (318.15 K, 101 kPa, x2 = 0.2): 0.6972 ± 0.0088 mPa·s | viscosity (318.15 K, 101 kPa, x2 = 0.3): 0.7456 ± 0.0093 mPa·s | viscosity (318.15 K, 101 kPa, x2 = 0.4): 0.8031 ± 0.0099 mPa·s | viscosity (318.15 K, 101 kPa, x2 = 0.4999): 0.8802 ± 0.011 mPa·s | viscosity (318.15 K, 101 kPa, x2 = 0.55): 0.92 ± 0.011 mPa·s | viscosity (318.15 K, 101 kPa, x2 = 0.6001): 0.9714 ± 0.012 mPa·s | viscosity (318.15 K, 101 kPa, x2 = 0.65): 1.027 ± 0.013 mPa·s | viscosity (318.15 K, 101 kPa, x2 = 0.7): 1.089 ± 0.013 mPa·s | viscosity (318.15 K, 101 kPa, x2 = 0.8001): 1.245 ± 0.015 mPa·s | viscosity (318.15 K, 101 kPa, x2 = 0.9): 1.45 ± 0.018 mPa·s | viscosity (318.15 K, 101 kPa, x2 = 0.95): 1.583 ± 0.019 mPa·s | viscosity (318.15 K, 101.33 kPa, x1 = 0.0672): 1.565 mPa·s | viscosity (318.15 K, 101.33 kPa, x1 = 0.0989): 1.497 mPa·s | viscosity (318.15 K, 101.33 kPa, x1 = 0.1393): 1.409 mPa·s | viscosity (318.15 K, 101.33 kPa, x1 = 0.1939): 1.303 mPa·s | viscosity (318.15 K, 101.33 kPa, x1 = 0.2674): 1.172 mPa·s | viscosity (318.15 K, 101.33 kPa, x1 = 0.3319): 1.077 mPa·s | viscosity (318.15 K, 101.33 kPa, x1 = 0.405): 0.984 mPa·s | viscosity (318.15 K, 101.33 kPa, x1 = 0.4915): 0.895 mPa·s | viscosity (318.15 K, 101.33 kPa, x1 = 0.5791): 0.816 mPa·s | viscosity (318.15 K, 101.33 kPa, x1 = 0.6466): 0.769 mPa·s | viscosity (318.15 K, 101.33 kPa, x1 = 0.6907): 0.745 mPa·s | viscosity (318.15 K, 101.33 kPa, x1 = 0.776): 0.7 mPa·s | viscosity (318.15 K, 101.33 kPa, x1 = 0.8387): 0.671 mPa·s | viscosity (318.15 K, 101.33 kPa, x1 = 0.8867): 0.654 mPa·s | viscosity (318.15 K, 101.33 kPa, x1 = 0.9129): 0.642 mPa·s | viscosity (318.15 K, 101.33 kPa, x1 = 0.9471): 0.629 mPa·s | viscosity (323.15 K, 101 kPa, x2 = 0.1): 0.6131 ± 0.0078 mPa·s | viscosity (323.15 K, 101 kPa, x2 = 0.2): 0.6454 ± 0.0081 mPa·s | viscosity (323.15 K, 101 kPa, x2 = 0.3): 0.6862 ± 0.0086 mPa·s | viscosity (323.15 K, 101 kPa, x2 = 0.4): 0.7331 ± 0.0091 mPa·s | viscosity (323.15 K, 101 kPa, x2 = 0.4999): 0.7968 ± 0.0098 mPa·s | viscosity (323.15 K, 101 kPa, x2 = 0.55): 0.829 ± 0.01 mPa·s | viscosity (323.15 K, 101 kPa, x2 = 0.6001): 0.8676 ± 0.011 mPa·s | viscosity (323.15 K, 101 kPa, x2 = 0.65): 0.9126 ± 0.011 mPa·s | viscosity (323.15 K, 101 kPa, x2 = 0.7): 0.9614 ± 0.012 mPa·s | viscosity (323.15 K, 101 kPa, x2 = 0.8001): 1.08 ± 0.013 mPa·s | viscosity (323.15 K, 101 kPa, x2 = 0.9): 1.232 ± 0.015 mPa·s | viscosity (323.15 K, 101 kPa, x2 = 0.95): 1.333 ± 0.016 mPa·s
